The text below walks through data of ChEMBL document CHEMBL4321874 (J Med Chem, 2020).

For assay [1], the target named is Cyclin-dependent kinase 2/cyclin E1 (Homo sapiens, UniProt P24941). Kind of assay: Inhibition of N-terminal GST-tagged full-length human CDK2 (1 to 298 residues)/Cyclin E (1 to 410 residues) expressed in baculovirus expression system using histone H1 as susbtrate after 90 mins by Kinase-Glo luminescence assay.
Assay [2] can be described thus: Drug metabolism in reaction buffer containing 20 mM HEPES, 10 mM Mg(OAc)2, and 1 mM DTT at pH 7.5.
The nature of assay [3]: Drug metabolism in reaction buffer containing 50 mM HEPES, 0.1 mM orthovanadate, 0.01% BSA, 10 mM MgCl2, and 1 mM DTT at pH 7.5.
The nature of assay [4]: Drug metabolism in aqueous media assessed as formaldehyde adduct formation at 5 nmol after 30 mins in presence of excess formaldehyde by QTOF-UPLC analysis.
For assay [5], the species on record is Homo sapiens. Kind of assay: Selectivity index, ratio of IC50 N-terminal GST-tagged human ROCK1 catalytic domain (1 to 477 residues) expressed in baculovirus expression system to IC50 for N-terminal GST-fused full-length human CDC7 (1 to 574 end residues)/DBF4 (1 to 674 residues) expressed in baculovirus expression system.
For assay [6], the target named is T1, CDC7/DBF4 (Cell division cycle 7-related protein kinase/Activator of S phase kinase) (Homo sapiens, UniProt O00311). The assay can be described thus: Inhibition of N-terminal GST-fused full-length human CDC7 (1 to 574 end residues)/DBF4 (1 to 674 residues) expressed in baculovirus expression system using MCM2 as substrate preincubated with enzyme for 10 mins prior to 1 uM ATP addition by HTRF transcreener ADP assay. In general terms: Time-resolved FRET reads energy transfer from a long-lived donor to a nearby acceptor.

In assay [7] the target is Rho-associated protein kinase 1 (Homo sapiens, UniProt Q13464). The assay can be described thus: Inhibition of N-terminal GST-tagged human ROCK1 catalytic domain (1 to 477 residues) expressed in baculovirus expression system using biotin-STK-substrate 2 as substrate preincubated with enzyme for 5 mins followed by ATP addition and measured after 2 hrs by TR-FRET assay.
Assay [8] in a line: Drug metabolism in reaction buffer containing 25 mM HEPES, 0.1% Tween 20, 0.01% BSA, 10 mM Mg(OAc)2, and 1 mM DTT at pH 7.5.
The species entered for assay [9] is Homo sapiens. The assay can be described thus: Selectivity index, ratio of IC50 for N-terminal GST-tagged full-length human CDK2 (1 to 298 residues)/Cyclin E (1 to 410 residues) expressed in baculovirus expression system to IC50 for N-terminal GST-fused full-length human CDC7 (1 to 574 end residues)/DBF4 (1 to 674 residues) expressed in baculovirus expression system.

For assay [10], the target named is T2, Cell division cycle 7-related protein kinase (Homo sapiens, UniProt O00311). The assay can be described thus: Inhibition of CDC7 in human HeLa cells assessed as inhibition of MCM2 phosphorylation at Ser40 residue in human HeLa cells after 7 hrs by Western blot analysis. It is filed as cell-based. In general terms: A western blot detects proteins with antibodies after separation by electrophoresis.

For assay [11], the target named is T1, CDC7/DBF4 (Cell division cycle 7-related protein kinase/Activator of S phase kinase). The assay can be described thus: Inhibition of N-terminal GST-fused full-length human CDC7 (1 to 574 end residues)/DBF4 (1 to 674 residues) expressed in baculovirus expression system using MCM2 as substrate in presence of 50 uM ATP by HTRF transcreener ADP assay.
For assay [12] the target is unchanged. The assay can be described thus: Inhibition of N-terminal GST-fused full-length human CDC7 (1 to 574 end residues)/DBF4 (1 to 674 residues) expressed in baculovirus expression system using MCM2 as substrate preincubated with enzyme for 60 mins prior to 50 uM ATP addition by HTRF transcreener ADP assay.
Assay [13] concerns the target T2, Cell division cycle 7-related protein kinase. The assay can be described thus: Binding affinity to CDC7 (unknown origin) assessed as equilibrium dissociation constant.
The target of assay [14] is Glycogen synthase kinase-3 alpha (Homo sapiens) (UniProt P49840). Kind of assay: Inhibition of kinase tracer 236 binding to N-terminal GST-tagged human full length GSK3alpha expressed in baculovirus expression system at 1000 nM by Lanthascreen Eu kinase binding assay relative to control.
In assay [15] the target is CDK9/cyclin T1 (Homo sapiens) (UniProt O60563+P50750). The assay can be described thus: Inhibition of full-length recombinant human His-tagged CDK9/Cyclin T1 expressed in baculovirus expression system at 1000 nM by Adapta kinase assay relative to control.
The target in assay [16] is Myotonin-protein kinase (Homo sapiens) (UniProt Q09013). The assay can be described thus: Inhibition of kinase tracer 236 binding to recombinant full-length human GST-tagged DMPK expressed in baculovirus expression system at 1000 nM by Lanthascreen Eu kinase binding assay relative to control.
For assay [17], the target named is Dual specificity protein kinase CLK4 (Homo sapiens) (UniProt Q9HAZ1). Kind of assay: Inhibition of kinase tracer 236 binding to recombinant full-length human GST-tagged CLK4 expressed in baculovirus expression system at 1000 nM by Lanthascreen Eu kinase binding assay relative to control.
The test system of assay [18] is Mus musculus. Kind of assay: In vivo inhibition of […] in BALB/c mouse xenografted with human COLO205 cells assessed as MCM2 phosphorylation at Ser 41 residue in tumor at 100 mg/kg, po measured for 16 hrs post-treatment by Western blot analysis. In kind it is functional, organism-based. (In general: In xenograft studies the graft and the host belong to different species.)

Assay [19] deals with Dual specificity tyrosine-phosphorylation-regulated kinase 1B (Homo sapiens, UniProt Q9Y463). The assay can be described thus: Inhibition of recombinant full-length human GST-tagged DYRK1B expressed in baculovirus expression system at 1000 nM by Z'-LYTE assay relative to control.
In assay [20] the target is Dual specificity protein kinase CLK1 (Homo sapiens, UniProt P49759). The assay can be described thus: Inhibition of recombinant human GST-tagged CLK1 catalytic domain (129 to 484 residues) expressed in Escherichia coli at 1000 nM by Z'-LYTE assay relative to control.
Assay [21] addresses Dual specificity tyrosine-phosphorylation-regulated kinase 1A (Homo sapiens, UniProt Q13627). The assay can be described thus: Inhibition of recombinant full-length human GST-tagged DYRK1A expressed in baculovirus expression system at 1000 nM by Z'-LYTE assay relative to control.
Assay [22] deals with Death-associated protein kinase 3 (Homo sapiens) (UniProt O43293). Kind of assay: Inhibition of full-length human GST-tagged DAPK3 expresssed in baculovirus expression system at 1000 nM by Z'-LYTE assay relative to control.
Assay [23] has as its target CDK8/Cyclin C (Homo sapiens) (UniProt P49336+P24863). Kind of assay: Inhibition of kinase tracer 236 binding to recombinant full-length human His-tagged CDK8/CyclinC expressed in baculovirus expression system at 1000 nM by Lanthascreen Eu kinase binding assay relative to control.
In assay [24] the target is Glycogen synthase kinase-3 beta (Homo sapiens) (UniProt P49841). The assay can be described thus: Inhibition of recombinant full-length human His-tagged GSK3beta expressed in baculovirus expression system at 1000 nM by Z'-LYTE assay relative to control.
Assay [25] addresses Casein kinase I isoform gamma-2 (Homo sapiens) (UniProt P78368). Kind of assay: Inhibition of recombinant full-length human His-tagged CSNK1G2 expressed in baculovirus expression system at 1000 nM by Z'-LYTE assay relative to control.
For assay [26], the target named is Dual specificity protein kinase CLK2 (Homo sapiens) (UniProt P49760). Kind of assay: Inhibition of GST-tagged human recombinant CLK2 catalytic domain (137 to 498 residues) expressed in baculovirus expression system at 1000 nM by Z'-LYTE assay relative to control.
In assay [27] the target is Homeodomain-interacting protein kinase 4 (Homo sapiens) (UniProt Q8NE63). The assay can be described thus: Inhibition of recombinant full-length human N-terminal GST-tagged HIPK4 expressed in baculovirus expression system at 1000 nM by Z'-LYTE assay relative to control.
Assay [28] is described as follows: Drug metabolism assessed as (4bS)-2-(3-Methyl-1H-pyrazol-4-yl)-5,6,7,8-tetrahydropyrido-[1',2':3,4]imidazo[1,5-a]thieno[3,2-d]pyrimidin-12(4bH)-one formaldehyde adduct formation at 5 nmol after 30 mins in presence of excess formaldehyde by QTOF-UPLC analysis.
The target in assay [29] is Death-associated protein kinase 1 (Homo sapiens, UniProt P53355). The assay can be described thus: Inhibition of recombinant human N-terminal GST-tagged DAPK1 catalytic domain (1 to 363 residues) expressed in baculovirus expression system at 1000 nM by Adapta kinase assay relative to control.
In assay [30] the test system is Mus musculus. Kind of assay: Effect on PARP cleavage in tumor in BALB/c mouse xenografted with human COLO205 cells at 100 mg/kg, po measured for 16 hrs post-treatment by Western blot analysis. It is filed as functional, organism-based.
The target of assay [31] is Serine/threonine-protein kinase 17A (Homo sapiens) (UniProt Q9UEE5). The assay can be described thus: Inhibition of kinase tracer 236 binding to recombinant full-length human GST-tagged DRAK1 expressed in baculovirus expression system at 1000 nM by Lanthascreen Eu kinase binding assay relative to control.
In assay [32] the test system is Mus musculus. Kind of assay: Increase in cyclin B1 expression in tumor in BALB/c mouse xenografted with human COLO205 cells at 100 mg/kg, po measured for 16 hrs post-treatment by Western blot analysis. It is filed as functional, organism-based.

Broadly, the IC50 is the midpoint of a concentration-inhibition curve. What is called Kd is the concentration at which binding is half-saturated. The term inhibition denotes the relative decrease from the control value, in per cent.

Each structure is given as a SMILES string. The source made the active and inactive calls. The calls are words filed in the database; no cut-off is given here.

On to `Cc1n[nH]cc1-c1cc2nc(C34CCC(CC3)N4)[nH]c(=O)c2s1`, for which the IC50 in assay [1] is 1500 nM; in [6] it was 0.16 nM; in assay [7], 96 nM. Besides, the Drug metabolism result in assay [2], in assay [3], in assay [4] and in [8] was “Metabolite not detected” throughout. Also, the Ratio IC50 in [5] was 600; in assay [9], 9400.

Regarding `Cc1[nH]ncc1-c1cc2nc([C@@H]3CC4CCN3CC4)[nH]c(=O)c2s1` [SIMUROSERTIB], the IC50 in [10] worked out at 17 nM; in assay [6], 0.26 nM; in assay [11] it was 43 nM; in assay [12], 0.54 nM; in [7] it was 430 nM. In [13], the Kd was found to be 0.424 nM.

As for `Cc1n[nH]cc1-c1cc2nc([C@@H]3CCCCN3)[nH]c(=O)c2s1`, the inhibition came to 89% in [14]; 90% in assay [15]; 95% in assay [16]; 100% in assay [17]; 96% in assay [19]; 81% in [20]. Further, the inhibition in assay [21] turned out to be 98%; in assay [22], 92%; in assay [23], 87%; in [24] it was 89%; in assay [25], 87%; in assay [26], 88%. The values for the inhibition in assay [27], in assay [29] and in assay [31] were 87%, 85% and 99%, respectively. Also, the inhibition entry in [18] is “inactive”. Further, the Drug metabolism entry in assay [28] was “Metabolite detected”. Further, the result in assay [30] was inactive. The outcome in assay [32] was Active.
